From US20250223268A1, “4-Methylsulfonylbenzamide Compound, Preparation Method, Herbicidal Composition And Use” (Jiangsu Flag Chemical Industry Co., Ltd., priority 2022, published 2025)

Tests used:
Assay type in all cases: in vivo
Echinochloa crusgalli [1] = test: Greenhouse herbicidal activity and crop safety comparison (Test Example 2); conditions: Rate 150 g/ha; for inhibition at 150 g/ha: Echinochloa crus-galli, read-out: Echinochloa crusgalli, control efficacy grading (fresh weight inhibition rate)
Summary of the method: (§1)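 Fresh weight inhibition, banded into grades A to E (E <20%), was rated 14-21 days after foliar spraying of 3-6 leaf plants, or 14-30 days after a soil spray applied 24 h post-sowing.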

[2] = system: Oryza sativa subsp. indica; test: as above; conditions: Rate 150 g/ha
Summary of the method: as §1

[3] = system: Oryza sativa subsp. japonica; test: as above; conditions: Rate 150 g/ha
Summary of the method: as §1

Leptochloa chinensis [4] = test: as above; conditions: Rate 150 g/ha; for inhibition at 150 g/ha: Dinebra chinensis, read-out: Leptochloa chinensis, control efficacy grading (fresh weight inhibition rate)
Summary of the method: as §1

Echinochloa crusgalli [5] = test: Greenhouse herbicidal activity assay, post-emergence; conditions: Post-emergence test, rate 150 g a.i./hm^2, grade by fresh weight inhibition rate; for pest or weed control at 150 g/ha: Echinochloa crus-galli, read-out: Control efficacy grade, Echinochloa crusgalli
Summary of the method: (§2)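 Letter grades (A: ≥80% to 100%; C: ≥40% to <60%; E: <20%) express fresh weight inhibition recorded 14-21 days post-spray. Weeds were treated on the leaves once they reached 3-6 leaves in chamber-grown pots, allowed to dry naturally, then kept in the chamber.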

Cyperus iria = test: as above; conditions: Post-emergence test, rate 150 g a.i./hm^2, grade by fresh weight inhibition rate; for pest or weed control at 150 g/ha: Cyperus iria, read-out: Control efficacy grade, Cyperus iria
Summary of the method: as §2

Eclipta prostrata = test: as above; conditions: Post-emergence test, rate 150 g a.i./hm^2, grade by fresh weight inhibition rate; for pest or weed control at 150 g/ha: Eclipta prostrata, read-out: Control efficacy grade, Eclipta prostrata
Summary of the method: as §2

Leptochloa chinensis [6] = test: as above; conditions: Post-emergence test, rate 150 g a.i./hm^2, grade by fresh weight inhibition rate; for pest or weed control at 150 g/ha: Dinebra chinensis, read-out: Control efficacy grade, Leptochloa chinensis
Summary of the method: as §2

Digitaria sanguinalis = test: as above; conditions: Post-emergence test, rate 150 g a.i./hm^2, grade by fresh weight inhibition rate; for pest or weed control at 150 g/ha: Digitaria sanguinalis, read-out: Control efficacy grade, Digitaria sanguinalis
Summary of the method: as §2

Structure (SMILES) | Echinochloa crusgalli, control efficacy grading (fresh weight inhibition rate) (Echinochloa crusgalli [1]) | Oryza sativa subsp. indica, grading of fresh weight inhibition rate (crop safety) [2] | Oryza sativa subsp. japonica, grading of fresh weight inhibition rate (crop safety) [3] | Leptochloa chinensis, control efficacy grading (fresh weight inhibition rate) (Leptochloa chinensis [4]) | Control efficacy grade, Echinochloa crusgalli (Echinochloa crusgalli [5]) | Control efficacy grade, Cyperus iria (Cyperus iria) | Control efficacy grade, Eclipta prostrata (Eclipta prostrata) | Control efficacy grade, Leptochloa chinensis (Leptochloa chinensis [6]) | Control efficacy grade, Digitaria sanguinalis (Digitaria sanguinalis) | inhibition at 150 g/ha (Echinochloa crusgalli [1]) [%] | inhibition at 150 g/ha (Leptochloa chinensis [4]) [%] | pest or weed control at 150 g/ha (Echinochloa crusgalli [5]) [%] | pest or weed control at 150 g/ha (Cyperus iria) [%] | pest or weed control at 150 g/ha (Eclipta prostrata) [%] | pest or weed control at 150 g/ha (Leptochloa chinensis [6]) [%] | pest or weed control at 150 g/ha (Digitaria sanguinalis) [%]
CCCS(=O)(=O)c1c(S(C)(=O)=O)ccc(C(=O)Nc2nnc(CC)o2)c1Cl [Compound 3-387] | A (Fresh weight inhibition rate≥80% to 100%) | E (Fresh weight inhibition rate<20%) | E (Fresh weight inhibition rate<20%) | A (Fresh weight inhibition rate≥80% to 100%) | A (Fresh weight inhibition rate≥80% to 100%) | A (Fresh weight inhibition rate≥80% to 100%) | A (Fresh weight inhibition rate≥80% to 100%) | A (Fresh weight inhibition rate≥80% to 100%) | A (Fresh weight inhibition rate≥80% to 100%) |  |  |  |  |  |  | 
CCc1nnc(NC(=O)c2ccc(S(C)(=O)=O)c(S(=O)(=O)C(C)C)c2Cl)o1 [Compound 3-392, 2-chloro-N-(5-ethyl-1,3,4-oxadiazol-2-yl)-3-(isopropylsulfonyl)-4-(methylsulfonyl)benzamide] |  | E (Fresh weight inhibition rate<20%) | E (Fresh weight inhibition rate<20%) |  |  |  |  |  |  | 80 to 100 | 80 to 100 | 80 to 100 | 80 to 100 | 80 to 100 | 80 to 100 | 80 to 100
CCc1nnc(NC(=O)c2ccc(S(C)(=O)=O)c(S(=O)(=O)CC3CC3)c2Cl)o1 [Compound 3-418] | A (Fresh weight inhibition rate≥80% to 100%) | E (Fresh weight inhibition rate<20%) | E (Fresh weight inhibition rate<20%) | A (Fresh weight inhibition rate≥80% to 100%) | A (Fresh weight inhibition rate≥80% to 100%) | A (Fresh weight inhibition rate≥80% to 100%) | A (Fresh weight inhibition rate≥80% to 100%) | A (Fresh weight inhibition rate≥80% to 100%) | A (Fresh weight inhibition rate≥80% to 100%) |  |  |  |  |  |  | 
CCc1nnc(NC(=O)c2ccc(S(C)(=O)=O)c(S(=O)(=O)C3CC3)c2Cl)o1 [Compound 3-423] | A (Fresh weight inhibition rate≥80% to 100%) | E (Fresh weight inhibition rate<20%) | E (Fresh weight inhibition rate<20%) | A (Fresh weight inhibition rate≥80% to 100%) | A (Fresh weight inhibition rate≥80% to 100%) | A (Fresh weight inhibition rate≥80% to 100%) | A (Fresh weight inhibition rate≥80% to 100%) | A (Fresh weight inhibition rate≥80% to 100%) | A (Fresh weight inhibition rate≥80% to 100%) |  |  |  |  |  |  | 
CCc1nnc(NC(=O)c2ccc(S(C)(=O)=O)c(S(=O)(=O)C3CCC3)c2Cl)o1 [Compound 3-428] | A (Fresh weight inhibition rate≥80% to 100%) | E (Fresh weight inhibition rate<20%) | E (Fresh weight inhibition rate<20%) | A (Fresh weight inhibition rate≥80% to 100%) | A (Fresh weight inhibition rate≥80% to 100%) | A (Fresh weight inhibition rate≥80% to 100%) | A (Fresh weight inhibition rate≥80% to 100%) | A (Fresh weight inhibition rate≥80% to 100%) | A (Fresh weight inhibition rate≥80% to 100%) |  |  |  |  |  |  | 
CCc1nnc(NC(=O)c2ccc(S(C)(=O)=O)c(S(=O)(=O)C3CCCC3)c2Cl)o1 [Compound 3-433] | A (Fresh weight inhibition rate≥80% to 100%) | E (Fresh weight inhibition rate<20%) | E (Fresh weight inhibition rate<20%) | A (Fresh weight inhibition rate≥80% to 100%) | A (Fresh weight inhibition rate≥80% to 100%) | A (Fresh weight inhibition rate≥80% to 100%) | A (Fresh weight inhibition rate≥80% to 100%) | A (Fresh weight inhibition rate≥80% to 100%) | A (Fresh weight inhibition rate≥80% to 100%) |  |  |  |  |  |  | 
C=CCS(=O)(=O)c1c(S(C)(=O)=O)ccc(C(=O)Nc2nnc(CC)o2)c1Cl [Compound 3-458] | A (Fresh weight inhibition rate≥80% to 100%) | E (Fresh weight inhibition rate<20%) | E (Fresh weight inhibition rate<20%) | A (Fresh weight inhibition rate≥80% to 100%) | A (Fresh weight inhibition rate≥80% to 100%) | A (Fresh weight inhibition rate≥80% to 100%) | A (Fresh weight inhibition rate≥80% to 100%) | A (Fresh weight inhibition rate≥80% to 100%) | A (Fresh weight inhibition rate≥80% to 100%) |  |  |  |  |  |  | 
CCCS(=O)(=O)c1c(S(C)(=O)=O)ccc(C(=O)Nc2nnc(C(C)C)o2)c1Cl [Compound 3-503, 2-chloro-N-(5-isopropyl-1,3,4-oxadiazol-2-yl)-4-(methylsulfonyl)-3-(propylsulfonyl)benzamide] |  | E (Fresh weight inhibition rate<20%) | E (Fresh weight inhibition rate<20%) |  |  |  |  |  |  | 80 to 100 | 80 to 100 | 80 to 100 | 80 to 100 | 80 to 100 | 80 to 100 | 80 to 100
CC(C)c1nnc(NC(=O)c2ccc(S(C)(=O)=O)c(S(=O)(=O)C(C)C)c2Cl)o1 [Compound 3-508] | A (Fresh weight inhibition rate≥80% to 100%) | E (Fresh weight inhibition rate<20%) | E (Fresh weight inhibition rate<20%) | A (Fresh weight inhibition rate≥80% to 100%) | A (Fresh weight inhibition rate≥80% to 100%) | A (Fresh weight inhibition rate≥80% to 100%) | A (Fresh weight inhibition rate≥80% to 100%) | A (Fresh weight inhibition rate≥80% to 100%) | A (Fresh weight inhibition rate≥80% to 100%) |  |  |  |  |  |  | 
C=CCS(=O)(=O)c1c(S(C)(=O)=O)ccc(C(=O)Nc2nnc(C(C)C)o2)c1Cl [Compound 3-574] | A (Fresh weight inhibition rate≥80% to 100%) | E (Fresh weight inhibition rate<20%) | E (Fresh weight inhibition rate<20%) | A (Fresh weight inhibition rate≥80% to 100%) | A (Fresh weight inhibition rate≥80% to 100%) | A (Fresh weight inhibition rate≥80% to 100%) | A (Fresh weight inhibition rate≥80% to 100%) | A (Fresh weight inhibition rate≥80% to 100%) | B (Fresh weight inhibition rate≥260% to <80%) |  |  |  |  |  |  | 
